From patent publication US10821093B2, “Antibacterial microelement chelates and the use thereof in animal feeds” (priority 2012, dated 2020)
Where two headings read alike, the source gives them in different places. Marks after values point to notes of the source that are not given here.

Columns and labels:
Arcanobacterium piogenes = assay: MIC; type: cell-based
Micrococcus luteus = assay: MIC, liquid culture dilution; type: cell-based
Escherichia coli = assay: MIC, liquid culture dilution (single chelates and cross-dilution combinations); type: cell-based
Salmonella enterica = assay: as above; type: cell-based, Salmonella enterica subp. Enterica serovar enteritidis
LACTIC ACID PRODUCERS = assay: MIC, liquid culture dilution; type: cell-based
Saccharomyces cerevisiae = assay: MIC, liquid culture dilution; type: cell-based
Staphylococcus aureus = assay: MIC, liquid culture dilution; type: cell-based
Streptococcus agalactiae = assay: MIC, liquid culture dilution; type: cell-based
Clostridium perfringens [1] = type: cell-based
[2] = tested on: Brachyspira hyodysenteriae; assay: MIC (single chelates and combinations)
Clostridium perfringens [3] = settings: treatment group III
Lactococcus = assay: Minimal lethal concentration (CID); type: cell-based
Method: (§1) It is the concentration of the active ingredient that causes the complete death of the microbes. Under sterile conditions within a laminar box, a dilution series was prepared from the liquid culture mediums that were incubated for 24 hours, then from the dilution series 100 μl each was placed onto agar dishes and spread with a sterile glass rod. The incubation period is 24 hours under conditions favorable for the growth of the microbe, then the number of colonies on the agar dishes are counted.
(§2) In the case where no colonies are visible on the culture medium after the incubation, it indicates the microbe killing effect (CID) of the trace element chelate. The number of countable colonies grown on the agar dishes gives the actual MIC value of the given trace element chelate.

Salmonella = assay: Minimal lethal concentration (CID); type: cell-based
Method: as §1, §2

S. tiphy = type: cell-based
LSE = assay: Minimal lethal concentration (CID); type: cell-based, Saccharomyces cerevisiae
Method: as §1, §2

Lawsonia intracellularis = tested on: Lawsonia intracellularis
Method: Experimental feeding was performed with growing pigs, under pilot environmental conditions with the animal paired methods on a stock infected with the pathogen Lawsonia intracellularis. The control group received the usual antibiotic supplement mixed into the feed.

Clostridium perfringens [4] = tested on: Clostridium perfringens
Clostridium = assay: Minimal lethal concentration (CID); type: cell-based
Method: as §1, §2

E. coli = tested on: E. coli
Description: The experimental animals had E. coli infection. The control group received the standard antibiotic supplement in the feed to control the E. coli infection.

[5] = 1 kg/t in feed, 101 days of fattening
[6] = vs antibiotic-supplemented control

| Compound | Minimal inhibitory concentration (MIC) (Arcanobacterium piogenes) [ppm] | Minimal inhibitory concentration (MIC) (Micrococcus luteus) [ppm] | Minimal inhibitory concentration (MIC) (Escherichia coli) [ppm] | Minimal inhibitory concentration (MIC) (Salmonella enterica) [ppm] | Minimal inhibitory concentration (MIC) (LACTIC ACID PRODUCERS) [ppm] | Minimal inhibitory concentration (MIC) (Saccharomyces cerevisiae) [ppm] | Minimal inhibitory concentration (MIC) (Staphylococcus aureus) [ppm] | Minimal inhibitory concentration (MIC) (Streptococcus agalactiae) [ppm] | Minimal inhibitory concentration (MIC) (Clostridium perfringens [1]) [ppm] | Minimal inhibitory concentration (MIC) [2] [ppm] | also measured |
| --- | --- | --- | --- | --- | --- | --- | --- | --- | --- | --- | --- |
| NCC(=O)[O-].[Ag+] [Ag glycinate] | 184 |  |  |  |  |  |  |  |  |  |  |
| NCC(=O)[O-].NCC(=O)[O-].O.[Cu+2] [Copper (H2O) bis-glycinate] | 32 | 60 | 300 | 400 | 800 | 800 | 5.3 | 171 | 100 | 96 |  |
| [NH3+][Cu]1([NH3+])[O]C(=O)CN(CC(=O)O)CCN(CC(=O)O)CC(=O)[O]1 [Cu diamino ethylenediamine tetraacetic acid] |  |  |  |  |  |  |  |  | 20 | 80 | Egg yield increase compared to the negative control group (Clostridium perfringens [3]): 6.7%; Egg yield increase compared to the positive control group (Clostridium perfringens [3]): 22.4%; Total eggs (Clostridium perfringens [3]; 36 hens, C. perfringens inoculated): 1868 pc.; No. of eggs/hen (Clostridium perfringens [3]; C. perfringens inoculated): 51.80; Total egg weight (Clostridium perfringens [3]; C. perfringens inoculated): 125.70 kg; Weight of egg (Clostridium perfringens [3]; g/pc.): 67.2 g |
| NCC(=O)O.O=S(=O)([O-])[O-].[Zn+2] [Zinc mono-glycinate, zinc mono-glycinate chelate] |  | 60 | 100 | 100 | 800 | 800 | 40 | 80 | 210 | >4000 | Minimal inhibitory concentration (MIC) (Staphylococcus aureus; listed as Zn mono-glycinate): 20 ppm; Minimal inhibitory concentration (MIC) (Streptococcus agalactiae; listed as Zn mono-glycinate): 40 ppm; CID concentration (Lactococcus): 800 ppm; CID concentration (Salmonella; Salmonella): 3000 ppm; CID value relative to MIC value (Salmonella; Salmonella strains): 30 fold; CID concentration (S. tiphy): 3000 ppm; CID concentration (LSE): 800 ppm |
| [NH2][Zn]([NH2])([O]C(=O)C(O)CC(=O)O)[O]C(=O)C(O)CC(=O)O (stereo not shown) [Zn diammine bis-malate, Zn diammonium malate] | 21 |  | 80 | 120 | 500 | 500 | 80 | 20 | 340 | 2315 |  |
| NCC(=O)[O][Cu]([NH3+])([NH3+])[O]C(=O)CN [copper diammonium bis-glycinate] |  |  |  |  |  |  |  |  |  |  | Added weight (Lawsonia intracellularis; [5]): 76.15 kg; Average slaughter weight (Lawsonia intracellularis; [5]): 107.01 kg; Feed utilization (Lawsonia intracellularis; [5]): 3.10 kg/kg; Added weight higher than control (Lawsonia intracellularis; [6]): 6.2%; Feed utilization better than control (Lawsonia intracellularis; [6]): 6.8%; Slaughter weight higher than control (Lawsonia intracellularis; [6]): 1.6%; Relative feed utilization (Clostridium perfringens [4]; 1.0 kg/t in feed, 42 days): 1.89 kg/kg; Total feed use (Clostridium perfringens [4]; 1.0 kg/t in feed, 42 days): 59 880 kg; Total living weight (Clostridium perfringens [4]; 1.0 kg/t in feed, 42 days): 32 395 kg; Total weight gain (Clostridium perfringens [4]; 1.0 kg/t in feed, 42 days): 31 681 kg; Chicken shipped (Clostridium perfringens [4]; 1.0 kg/t in feed, 42 days, 17 100 chicks at start): 16 238; Mean slaughter weight (Clostridium perfringens [4]; 1.0 kg/t in feed, 42 days, difference significant at P ≤ 0.001): 1995*** g; Faeces, signs of diarrhea (Clostridium perfringens [4]; experimental group, observation): no signs of a change indicating diarrhea was visible; Adverse side effects (Clostridium perfringens [4]; feeding the experimental composition, 1.0 kg/t): No adverse side effects were observed; Chicken shipped, difference to control group (Clostridium perfringens [4]; vs unsupplemented control): 4; Relative feed utilization, difference to control group (less feed per unit live weight gain) (Clostridium perfringens [4]; vs unsupplemented control): 3.6%; Total feed use, difference to control group (Clostridium perfringens [4]; vs unsupplemented control): 620 kg |
| Iron mono-glycinate |  | 100 | 350 | 450 | 1000 | 1000 |  |  |  |  |  |
| Manganese mono-glycinate |  | 100 | 300 | 300 | 1000 | 1000 |  |  |  |  |  |
| Zn(Glycine)2 [Zinc (H2O) bis-glycinate] |  | 60 | 120 | 220 | 800 | 500 | 4 | 29 | 180 | >4000 |  |
| copper mono-glycinate chelate | 92 | 200 | 400 | 400 | 800 | 800 |  |  | 50 | 90 | CID concentration (Clostridium; Clostridium): 200 ppm; CID value relative to MIC value (Clostridium; Clostridium strains): twice as much; CID concentration (Lactococcus): 800 ppm; CID concentration (LSE): 800 ppm |
| zinc ammonium maleinate |  |  |  |  |  |  |  |  |  |  | Daily weight gain (E. coli; 38 days): 391 g; Feed utilization (E. coli; 38 days): 2.04 kg/kg; Body weight at the end of the experiment (E. coli; 38 days, initial weight 9.19 kg): 24.05 kg; Average daily weight gain higher than control group (E. coli; [6]): 45%; Feed utilization better than control group (E. coli; [6]): 13% |
